Target: T1, HCV polymerase (Hepatitis C virus genotype 1b, UniProt P26663)
T1 construct: 2.5 pmoles (0.15 μg) HCV polymerase protein in a final volume of 75 μL
Assay: HCV polymerase primer/template-directed transcription assay (32P-GTP incorporation, filter binding)
Format: biochemical
Details: recombinant HCV polymerase; 30 minutes at 30° C.; concentration giving 50% inhibition of polymerase-directed transcription; read-out: IC50
Outline: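 IC50s come from triplicate cpm, refit with an enzyme-concentration (30 nM) correction when under 200 nM. Reactions ran 30 min at 30° C in Tris pH 7.2 with MgCl2, 1 μM GTP spiked with α-32P-GTP, biotin-dG12 primer and poly(rC)300 template, with 1% DMSO. Incorporated label was collected on DE filtermats and counted.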

T1 sequence (P26663 2420-3010): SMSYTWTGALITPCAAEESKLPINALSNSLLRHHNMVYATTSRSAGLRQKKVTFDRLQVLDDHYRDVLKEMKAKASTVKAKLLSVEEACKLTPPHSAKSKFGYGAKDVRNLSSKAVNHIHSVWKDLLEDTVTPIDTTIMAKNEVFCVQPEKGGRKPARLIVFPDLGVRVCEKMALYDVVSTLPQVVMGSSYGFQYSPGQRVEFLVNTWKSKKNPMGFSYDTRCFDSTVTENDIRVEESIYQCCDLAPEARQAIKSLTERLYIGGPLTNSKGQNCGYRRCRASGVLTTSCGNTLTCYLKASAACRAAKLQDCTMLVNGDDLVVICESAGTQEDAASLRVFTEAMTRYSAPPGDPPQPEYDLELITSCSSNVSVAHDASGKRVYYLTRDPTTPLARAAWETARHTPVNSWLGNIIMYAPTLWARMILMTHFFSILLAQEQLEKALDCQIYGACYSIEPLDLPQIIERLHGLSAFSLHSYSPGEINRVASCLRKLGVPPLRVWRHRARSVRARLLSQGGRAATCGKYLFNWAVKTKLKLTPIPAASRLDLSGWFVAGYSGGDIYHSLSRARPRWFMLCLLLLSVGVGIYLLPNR

SMILES	IC50 [nM]
COc1ccc(CCC2(C3CCCC3)CC(O)=C(Sc3nc4cc(Cl)ccc4n3C(C)C)C(=O)O2)cc1Cl (stereo not drawn) [C(40), 3-[(5-chloro-1-isopropyl-1H-benzimidazol-2-yl)thio]-6-[2-(3-chloro-4-methoxyphenyl)ethyl]-6-cyclopentyl-4-hydroxy-5,6-dihydro-2H-pyran-2-one]	25
COc1ccc(CCC2(C3CCCC3)CC(O)=C(Sc3nnnn3C)C(=O)O2)cc1Cl (stereo not drawn) [C(38), 6-[2-(3-chloro-4-methoxyphenyl)ethyl]-6-cyclopentyl-4-hydroxy-3-[(1-methyl-1H-tetrazol-5-yl)thio]-5,6-dihydro-2H-pyran-2-one]	280
Cc1nc(C(C)(C)c2ccc(CCC3(C4CCCC4)CC(=O)CC(=O)O3)cc2)no1 (stereo not drawn) [A(56), 6-Cyclopentyl-6-(2-{4-[1-methyl-1-(5-methyl-[1,2,4]oxadiazol-3-yl)-ethyl]-phenyl}-ethyl)-dihydro-pyran-2,4-dione]	39000
Cc1cc(C)n2nc(CC3=C(O)CC(CCc4cccc(C(C)(C)C)c4)(C4CCCC4)OC3=O)nc2n1 (stereo not drawn) [B(03), 6-[2-(3-tert-Butyl-phenyl)-ethyl]-6-cyclopentyl-3-(5,7-dimethyl-[1,2,4]triazolo[1,5-a]pyrimidin-2-ylmethyl)-4-hydroxy-5,6-dihydro-pyran-2-one]	5
CC(C)(C#N)c1c(F)cc(CCC2(C3CCCC3)CC(O)=C(Cc3nc4ncccn4n3)C(=O)O2)cc1F (stereo not drawn) [A(144), 2-{4-[2-(2-Cyclopentyl-4-hydroxy-6-oxo-5-[1,2,4]triazolo[1,5-a]pyrimidin-2-ylmethyl-3,6-dihydro-2H-pyran-2-yl)-ethyl]-2,6-difluoro-phenyl}-2-methyl-propionitrile]	11
CCc1nc(C)c(CC2=C(O)CC(CCc3ccc(C(C)(C)C#N)c(F)c3)(C3CCCC3)OC2=O)[nH]1 (stereo not drawn) [A(97), 2-[4-(2-{2-cyclopentyl-5-[(2-ethyl-4-methyl-1H-imidazol-5-yl)methyl]-4-hydroxy-6-oxo-3,6-dihydro-2H-pyran-2-yl}ethyl)-2-fluorophenyl]-2-methylpropanenitrile]	290
COc1cc(OC)c(CCC2(C3CCCC3)CC(O)=C(Sc3nnc(C)n3C)C(=O)O2)cc1Cl (stereo not drawn) [C(88), 6-[2-(5-chloro-2,4-dimethoxyphenyl)ethyl]-6-cyclopentyl-3-[(4,5-dimethyl-4H-1,2,4-triazol-3-yl)thio]-4-hydroxy-5,6-dihydro-2H-pyran-2-one]	22
O=C1CC(=O)OC(CCC#Cc2ccc(F)cc2)(C2CCCC2)C1 (stereo not drawn) [F(5), 6-Cyclopentyl-6-[4-(4-fluoro-phenyl)-but-3-ynyl]-dihydro-pyran-2,4-dione]	25000
COc1ccc(CCC2(C3CCCC3)CC(O)=C(Sc3nnc(-c4ccc(O)cc4)[nH]3)C(=O)O2)cc1Cl (stereo not drawn) [C(23), 6-[2-(3-Chloro-4-methoxy-phenyl)-ethyl]-6-cyclopentyl-3-[5-(4-hydroxy-phenyl)-4H-[1,2,4]triazol-3-ylsulfanyl]-dihydro-pyran-2,4-dione]	50
C[C@@H](O)c1ccc(CCC2(C3CCCC3)CC(=O)CC(=O)O2)cc1 (stereo partly drawn) [A(35), 6-Cyclopentyl-6-{2-[4-(1-hydroxy-ethyl)-phenyl]-ethyl}-dihydro-pyran-2,4-dione]	4100
COc1ccc(CCC2(C3CCCC3)CC(=O)C(Cc3ccccc3)C(=O)O2)cc1Cl (stereo not drawn) [B(78), 3-benzyl-6-[2-(3-chloro-4-methoxyphenyl)ethyl]-6-cyclopentyldihydro-2H-pyran-2,4(3H)-dione]	1000
Cc1cnc2nc(CC3C(=O)CC(CCc4ccc(C(C)(C)C#N)c(F)c4)(C4CCCC4)OC3=O)nn2c1 (single isomer, unassigned; (-)) [A(110), (−)-2-(4-{2-[2-Cyclopentyl-5-(6-methyl-[1,2,4]triazolo[1,5-a]pyrimidin-2-ylmethyl)-4,6-dioxo-tetrahydro-pyran-2-yl]-ethyl}-2-fluoro-phenyl)-2-methyl-propionitrile]	1
Cc1cc(C)n2nc(CC3=C(O)CC(CCc4ccc(C(C)(C)O)c(F)c4)(C4CCCC4)OC3=O)nc2n1 (single isomer, unassigned; enantiomer b) [A(219), 6-cyclopentyl-3-[(5,7-dimethyl[1,2,4]triazolo[1,5-a]pyrimidin-2-yl)methyl]-6-{2-[3-fluoro-4-(1-hydroxy-1-methylethyl)phenyl]ethyl}-4-hydroxy-5,6-dihydro-2H-pyran-2-one (enantiomer B)]	88
COc1cc(OC)c(CCC2(C3CCCC3)CC(O)=C(Cc3nc4ccsc4c(=O)[nH]3)C(=O)O2)cc1Cl (stereo not drawn) [B(64), 2-({6-[2-(5-Chloro-2,4-dimethoxyphenyl)ethyl]-6-cyclopentyl-4-hydroxy-2-oxo-5,6-dihydro-2H-pyran-3-yl}methyl)thieno[3,2-d]pyrimidin-4(3H)-one]	33
COC(=O)C(C)(C)Oc1ccc(CCC2(C3CCCC3)CC(=O)CC(=O)O2)cc1Cl (stereo not drawn) [A(53), 2-{2-Chloro-4-[2-(2-cyclopentyl-4,6-dioxo-tetrahydro-pyran-2-yl)-ethyl]-phenoxy}-2-methyl-propionic acid methyl ester]	3300
CCc1cc(CCC2(C3CCCC3)CC(O)=C(Cc3nc[nH]c3C)C(=O)O2)ccc1O (stereo not drawn) [B(110), 6-Cyclopentyl-6-[2-(3-ethyl-4-hydroxy-phenyl)-ethyl]-4-hydroxy-3-(5-methyl-1H-imidazol-4-ylmethyl)-5,6-dihydro-pyran-2-one]	107
CC(C)(CNC(=O)c1cnc(O)cn1)c1cccc(CCC2(C3CCCC3)CC(=O)CC(=O)O2)c1 (stereo not drawn) [A(74), 5-Hydroxy-pyrazine-2-carboxylic acid (2-{3-[2-(2-cyclopentyl-4,6-dioxo-tetrahydro-pyran-2-yl)-ethyl]-phenyl}-2-methyl-propyl)-amide]	1200
CCc1cc(CCC2(C3CCCC3)CC(O)=C(Cc3nc4ncc(Cl)cn4n3)C(=O)O2)c(F)cc1O (stereo not drawn) [A(161), 3-(6-Chloro-[1,2,4]triazolo[1,5-a]pyrimidin-2-ylmethyl)-6-cyclopentyl-6-[2-(5-ethyl-2-fluoro-4-hydroxy-phenyl)-ethyl]-4-hydroxy-5,6-dihydro-pyran-2-one]	8
Cc1cnc2nc(CC3C(=O)CC(CCc4ccc(C5(C#N)CC5)c(F)c4)(C4CCCC4)OC3=O)nn2c1 (stereo not drawn) [A(113), 1-(4-{2-[2-Cyclopentyl-5-(6-methyl-[1,2,4]triazolo[1,5-a]pyrimidin-2-ylmethyl)-4,6-dioxo-tetrahydro-pyran-2-yl]-ethyl}-2-fluoro-phenyl)-cyclopropanecarbonitrile]	8
O=C1CC(=O)OC(CCc2ccc(OCC(F)(F)F)c(Cl)c2)(C2CCCC2)C1 (stereo not drawn) [A(05), 6-{2-[3-Chloro-4-(2,2,2-trifluoro-ethoxy)-phenyl]-ethyl}-6-cyclopentyl-dihydro-pyran-2,4-dione]	5100
CCc1cc(CCC2(C3CCCC3)CC(O)=C(Cc3nc4ncc(Cl)cn4n3)C(=O)O2)c(C)cc1O (stereo not drawn) [A(160), 3-(6-Chloro-[1,2,4]triazolo[1,5-a]pyrimidin-2-ylmethyl)-6-cyclopentyl-6-[2-(5-ethyl-4-hydroxy-2-methyl-phenyl)-ethyl]-4-hydroxy-5,6-dihydro-pyran-2-one]	29
CC(C)(CO)c1ccc(CCC2(C3CCCC3)CC(=O)CC(=O)O2)cc1F (stereo not drawn) [A(121), 6-Cyclopentyl-6-{2-[3-fluoro-4-(2-hydroxy-1,1-dimethyl-ethyl)-phenyl]-ethyl}-dihydro-pyran-2,4-dione]	1300
CC(C)(C#N)c1c(F)cc(CCC2(C3CCCC3)CC(O)=C(Cc3nc4ncc(Cl)cn4n3)C(=O)O2)cc1F (stereo not drawn) [A(142)]	4
Cc1cc(C)n2nc(CC3=C(O)CC(CCc4ccc(OCc5c(C)noc5C)cc4)(C4CCCC4)OC3=O)nc2n1 (stereo not drawn) [B(42), 6-Cyclopentyl-6-{2-[4-(3,5-dimethyl-isoxazol-4-ylmethoxy)-phenyl]-ethyl}-3-(5,7-dimethyl-[1,2,4]triazolo[1,5-a]pyrimidin-2-ylmethyl)-4-hydroxy-5,6-dihydro-pyran-2-one]	210
COc1ccc(CCC2(C3CCCC3)CC(O)=C(Cc3nc4ccsc4c(=O)[nH]3)C(=O)O2)cc1Cl (stereo not drawn) [B(56), 2-({6-[2-(3-Chloro-4-methoxyphenyl)ethyl]-6-cyclopentyl-4-hydroxy-2-oxo-5,6-dihydro-2H-pyran-3-yl}methyl)thieno[3,2-d]pyrimidin-4(3H)-one]	100
CCc1cc(CCC2(C3CCCC3)CC(O)=C(Cc3nc4nc(C)cc(C)n4n3)C(=O)O2)ccn1 (stereo not drawn) [A(162), 6-Cyclopentyl-3-(5,7-dimethyl-[1,2,4]triazolo[1,5-a]pyrimidin-2-ylmethyl)-6-[2-(2-ethyl-pyridin-4-yl)-ethyl]-4-hydroxy-5,6-dihydro-pyran-2-one]	10
Cc1cc(C)n2nc(CC3=C(O)CC(CCc4ccc(C5(C)OCCO5)c(Cl)c4)(C4CCCC4)OC3=O)nc2n1 (stereo not drawn) [B(122), 6-{2-[3-Chloro-4-(2-methyl-[1,3]dioxolan-2-yl)-phenyl]-ethyl}-6-cyclopentyl-3-(5,7-dimethyl-[1,2,4]triazolo[1,5-a]pyrimidin-2-ylmethyl)-4-hydroxy-5,6-dihydro-pyran-2-one]	7
CCc1cc(CCC2(C3CCCC3)CC(O)=C(Cc3nc4ncc(C)cn4n3)C(=O)O2)c2c(c1O)CCO2 (stereo not drawn) [A(182), 6-Cyclopentyl-6-[2-(5-ethyl-4-hydroxy-2,3-dihydro-benzofuran-7-yl)-ethyl]-4-hydroxy-3-(6-methyl-[1,2,4]triazolo[1,5-a]pyrimidin-2-ylmethyl)-5,6-dihydro-pyran-2-one]	4
Cn1c(CC2=C(O)CC(CCc3ccc(C(C)(C)C#N)c(F)c3)(C3CCCC3)OC2=O)nc2cc(Cl)ccc21 (stereo not drawn) [A(98), 2-[4-(2-{5-[(5-chloro-1-methyl-1H-benzimidazol-2-yl)methyl]-2-cyclopentyl-4-hydroxy-6-oxo-3,6-dihydro-2H-pyran-2-yl}ethyl)-2-fluorophenyl]-2-methylpropanenitrile]	10
O=C1CC(=O)OC(CCc2ccc(C3(C4CC4)CC(=O)CC(=O)O3)cc2)(C2CCCC2)C1 (stereo not drawn) [A(31)]	400

Reference: patent US7473790B2 (Pfizer Inc., priority 2003, dated 2009)
